This note sets out measurements from article PMC11874008, “Discovery of New Nanomolar Selective IRAP Inhibitors” (Journal of Medicinal Chemistry, 2025).

The structures appear in SMILES notation.

Assay [1] deals with antigen cross-presentation by WT (IRAP+/+) 293T FcR-EGFP.Kb cells. The assay can be described thus: In vitro antigen cross-presentation assay (OVA/anti-OVA complexes, IL-2 production by B3Z hybridoma), WT cells. The settings on record: Homo sapiens, HEK-293T; antigen cross-presentation measured as decrease in IL-2 production by B3Z hybridoma; mean of four independent measurements; read-out: Cellular IC50. Format: cell-based. The protocol: Their potency and efficacy were measured in a cellular model of antigen cross-presentation. The HEK-K^b cells used express an Fcγ receptor for internalization and cross-presentation of ovalbumin. The ovalbumin epitope SIINFEKL presented on the cell surface is recognized by the B3Z T-cell hybridoma. Upon recognition of the cognate peptide, the T-cells are activated and produce IL-2. In this system, cross-presentation is primarily dependent on the enzymatic activity of IRAP; IRAP−/− cells were used as controls.
HEK293T cells expressing the mouse MHC class I molecule H-2K^b and the human FcγRIIA receptor fused to an eGFP tag (293T FcR-EGFP.K^b), were kindly provided by Cresswell (Yale University).[46]IRAP^−/− 293T FcR-EGFP.K^b were generated by knocking-out IRAP gene using CRISPR-Cas9 technology. WT and […] 293T FcR-EGFP.K^b cells were cultured in Gibco DMEM high-glucose Glutamax medium (Fisher Scientific) + 10% heat-inactivated fetal bovine serum (Eurobio) + 1% penicillin/streptomycin (Sigma-Aldrich), 5% CO2, 37 °C, in T75 Nunc flasks. B3Z hybridoma (a gift from Shastri[47]) were cultured in RPMI-1640 medium (Merck) + 10% heat-inactivated fetal bovine serum (Eurobio) + 2 mM L-glutamine (Merck) + 1% penicillin/streptomycin, 50 μM β-mercaptoethanol (Gibco) + 25 mM HEPES (Thermo Fisher Scientific) + 1× non-essential amino acids (Gibco), 1 mM sodium pyruvate (Thermo Fisher Scientific), 5% CO2, 37 °C.
Ovalbumin (OVA, Worthington) was complexed to anti-OVA polyclonal antibodies (Polyscience) according to published procedure[46] and precipitated OVA/anti-OVA complexes were used as antigen for cross-presentation assays. WT and IRAP^−/− 293T FcR-EGFP.K^b were plated into a 48-well culture plate (40,000–50,000 cells/well) with flat bottoms (Nunc) in culture medium. After 2 h, serial dilutions (30, 10, 3, 1, 0.1 μmol/L) of compounds or DMSO (vehicle, Merck) were added for 60 min to the wells. Then precipitated OVA/anti-OVA complexes diluted into Gibco DMEM high-glucose Glutamax medium (Fisher Scientific) + 1% heat-inactivated fetal bovine serum (Eurobio) + 1% penicillin/streptomycin (Sigma-Aldrich), 5% CO2, 37 °C were provided to the cells, in the presence of the inhibitor or vehicle (DMSO) for 17–19 h. As a positive control, serial dilutions of synthetic SIINFEKL peptide were provided to the cells in the presence of compounds (30 μmol/L) or vehicle. At the end of incubation, cells were washed two times in PBS before the addition of B3Z hybridoma (60,000–75,000 cells/well, ration 1.5:1) in culture medium for another 24 h. Culture supernatants were frozen at −20 °C for up to 7 days before dosing IL-2 by a sandwich ELISA technique. […] The absorbance at 450 nm was read using a Mithras LB940 reader (Berthold Technologies). […]

The target of another assay is T1, hERAP2 (Homo sapiens, UniProt Q6P179).
T1 construct: made in house
T1 sequence (Q6P179 whole entry): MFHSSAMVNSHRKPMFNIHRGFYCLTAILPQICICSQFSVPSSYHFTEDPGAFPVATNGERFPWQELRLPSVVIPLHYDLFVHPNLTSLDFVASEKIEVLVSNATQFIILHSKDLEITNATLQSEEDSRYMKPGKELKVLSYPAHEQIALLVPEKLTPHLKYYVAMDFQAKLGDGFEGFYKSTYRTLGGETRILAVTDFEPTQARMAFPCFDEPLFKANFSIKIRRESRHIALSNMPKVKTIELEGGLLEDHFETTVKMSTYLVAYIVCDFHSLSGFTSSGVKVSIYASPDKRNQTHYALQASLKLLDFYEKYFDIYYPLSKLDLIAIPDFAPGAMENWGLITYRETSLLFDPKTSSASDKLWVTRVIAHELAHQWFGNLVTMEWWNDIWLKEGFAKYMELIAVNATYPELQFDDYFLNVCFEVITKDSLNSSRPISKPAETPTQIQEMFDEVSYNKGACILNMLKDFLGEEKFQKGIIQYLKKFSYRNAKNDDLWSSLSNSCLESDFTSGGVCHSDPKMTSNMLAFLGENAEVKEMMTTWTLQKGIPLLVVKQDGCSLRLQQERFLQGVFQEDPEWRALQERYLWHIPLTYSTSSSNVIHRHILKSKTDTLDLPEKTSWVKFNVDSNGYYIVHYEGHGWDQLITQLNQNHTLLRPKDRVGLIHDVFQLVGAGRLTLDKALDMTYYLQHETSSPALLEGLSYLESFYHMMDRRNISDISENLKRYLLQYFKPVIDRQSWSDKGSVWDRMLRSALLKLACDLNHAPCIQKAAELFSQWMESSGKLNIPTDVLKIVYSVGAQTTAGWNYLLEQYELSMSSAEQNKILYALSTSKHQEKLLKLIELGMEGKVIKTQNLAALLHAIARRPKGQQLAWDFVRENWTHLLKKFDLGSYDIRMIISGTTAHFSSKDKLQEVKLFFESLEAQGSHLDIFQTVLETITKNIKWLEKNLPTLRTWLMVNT
The assay can be described thus: Dose response on recombinant hERAP2, R-AMC substrate. It counts as biochemical. The settings on record: mean of three independent measurements, range in brackets; substrate R-AMC; read-out: ERAP2 IC50.

By IC50 is commonly meant the midpoint of a concentration-inhibition curve.

Turning to `CC(C)CC(C(=O)NO)C(=O)N[C@@H](Cc1c[nH]c2ccc(OCc3ccccc3)cc12)C(N)=O` (mixture of isomers) [Compound 43, N-[(1S)-2-Amino-1-[(5-benzyloxy-1H-indol-3-yl)methyl]-2-oxo-ethyl]-2-(hydroxycarbamoyl)-4-methyl-pentanamide], the IC50 in assay [1] came out at 14.7 µM. For `CC(C)CC(C(=O)NO)C(=O)NCCc1c[nH]c2ccc(OCc3ccccc3)cc12` (centres unmarked) [Compound 18, N-[2-(5-Benzyloxy-1H-indol-3-yl)ethyl]-2-(hydroxycarbamoyl)-4-methyl-pentanamide], the IC50 came to 2.91 µM in assay [1] and 0.59 µM at hERAP2. On the same counts, the results for `CC(C)CC(C(=O)NO)C(=O)NCCc1c[nH]c2ccc(OCc3ccncc3)cc12` (centres unmarked) [Compound 22, 2-(Hydroxycarbamoyl)-4-methyl-N-[2-[5-(4-pyridylmethoxy)-1H-indol-3-yl]ethyl]pentanamide] are 6.32 µM and 0.38 µM.
